{"source": "paper PMC6658769", "about": "“First-Time-in-Human Study and Prediction of Early Bactericidal Activity for GSK3036656, a Potent Leucyl-tRNA Synthetase Inhibitor for Tuberculosis Treatment” (Antimicrobial Agents and Chemotherapy, 2019)", "key": {"[1]": {"assay": "FTIH part A: plasma pharmacokinetics after single dose", "settings": "human, po"}, "in vitro [2]": {"assay": "in vitro", "format": "in vitro ADME", "settings": "dog, plasma"}, "[3]": {"settings": "both, human, in vivo"}, "[4]": {"settings": "human, in vivo"}, "[5]": {"assay": "Stability in pooled and spiked urine", "format": "physicochemical, human", "settings": "multiple freeze-thaw cycles and prolonged exposure to light"}, "[6]": {"tested_on": "panel of common bacterial pathogens", "assay": "Activity against a panel of common bacterial pathogens", "format": "cell-based"}, "[7]": {"molecular_target": "M. tuberculosis enzyme leucyl-tRNA synthetase (LeuRS)", "design": "method as in PMID 28953378", "settings": "LeuRS aminoacylation assay; cited from earlier work"}, "[8]": {"assay": "FTIH part B: plasma pharmacokinetics and accumulation after repeat dose", "settings": "human, po"}, "[9]": {"settings": "rat, in vivo"}, "[10]": {"assay": "FTIH study part A (single dose): safety and tolerability"}, "M. tuberculosis H37Rv [11]": {"tested_on": "M. tuberculosis H37Rv", "assay": "Acute lung infection model in mice", "format": "in vivo, C57BL/6 mice", "description": "(§1) The efficacy of GSK3036656 was assessed in C57BL/6 mice having acute and chronic lung infections by M. tuberculosis H37Rv, which mimic infections by actively replicating and nonreplicating/slow-replicating mycobacteria, respectively ([13], [14]). In the acute model, 10 mice were administered different daily oral doses ranging from 0.1 to 100 mg/kg of body weight for 8 days starting 1 day after infection. A maximum difference of 3.6 log CFU was obtained in the lungs compared to untreated mice. […] In the chronic model, a total of 18 mice were administered doses ranging from 0.1 to 30 mg/kg from weeks 6 to 14 after infection. Maximum reduction (drop of 2.1 log10 CFU in the lungs) was achieved after 2 months of daily oral treatment and after fitting the data to a sigmoidal curve. The EDmax for GSK3036656 was estimated as 1.3 mg/kg ([…], 0.7 to 3.4 mg/kg). […] Some additional groups treated at 0.3 to 30 mg/kg were studied in the chronic model to obtain kinetic data (from 2 to 16 weeks of treatment)."}, "in vitro [12]": {"assay": "in vitro", "format": "in vitro ADME", "settings": "mouse, plasma"}, "[13]": {"settings": "mouse, in vivo"}, "[14]": {"format": "in vitro ADME", "settings": "not told"}, "in vitro [15]": {"assay": "in vitro", "format": "in vitro ADME", "settings": "rat, plasma"}, "[16]": {"assay": "Nonclinical toxicity studies (NOAEL exposure)", "format": "in vivo", "settings": "oral", "source_text": "The principal findings observed in nonclinical toxicity studies following oral administration of GSK3036656 were cardiovascular and hematopoietic, with some minor changes in the liver, kidney, and thymus. The hematopoietic, kidney, liver, and thymus effects are considered either nonadverse or monitorable in the clinic. The structural cardiovascular changes that occurred in a single species at high doses were nonmonitorable but occurred at plasma concentrations where heart rate (HR) and blood pressure (BP) changes are recorded. Specific cardiovascular safety endpoints were included in the first-time-in-human (FTIH) study, including vital sign (HR and BP) stopping criteria."}, "P-glycoprotein (P-gp)": {"molecular_target": "P-glycoprotein (P-gp) (Homo sapiens, UniProt P08183)", "sequence (P08183 whole entry)": "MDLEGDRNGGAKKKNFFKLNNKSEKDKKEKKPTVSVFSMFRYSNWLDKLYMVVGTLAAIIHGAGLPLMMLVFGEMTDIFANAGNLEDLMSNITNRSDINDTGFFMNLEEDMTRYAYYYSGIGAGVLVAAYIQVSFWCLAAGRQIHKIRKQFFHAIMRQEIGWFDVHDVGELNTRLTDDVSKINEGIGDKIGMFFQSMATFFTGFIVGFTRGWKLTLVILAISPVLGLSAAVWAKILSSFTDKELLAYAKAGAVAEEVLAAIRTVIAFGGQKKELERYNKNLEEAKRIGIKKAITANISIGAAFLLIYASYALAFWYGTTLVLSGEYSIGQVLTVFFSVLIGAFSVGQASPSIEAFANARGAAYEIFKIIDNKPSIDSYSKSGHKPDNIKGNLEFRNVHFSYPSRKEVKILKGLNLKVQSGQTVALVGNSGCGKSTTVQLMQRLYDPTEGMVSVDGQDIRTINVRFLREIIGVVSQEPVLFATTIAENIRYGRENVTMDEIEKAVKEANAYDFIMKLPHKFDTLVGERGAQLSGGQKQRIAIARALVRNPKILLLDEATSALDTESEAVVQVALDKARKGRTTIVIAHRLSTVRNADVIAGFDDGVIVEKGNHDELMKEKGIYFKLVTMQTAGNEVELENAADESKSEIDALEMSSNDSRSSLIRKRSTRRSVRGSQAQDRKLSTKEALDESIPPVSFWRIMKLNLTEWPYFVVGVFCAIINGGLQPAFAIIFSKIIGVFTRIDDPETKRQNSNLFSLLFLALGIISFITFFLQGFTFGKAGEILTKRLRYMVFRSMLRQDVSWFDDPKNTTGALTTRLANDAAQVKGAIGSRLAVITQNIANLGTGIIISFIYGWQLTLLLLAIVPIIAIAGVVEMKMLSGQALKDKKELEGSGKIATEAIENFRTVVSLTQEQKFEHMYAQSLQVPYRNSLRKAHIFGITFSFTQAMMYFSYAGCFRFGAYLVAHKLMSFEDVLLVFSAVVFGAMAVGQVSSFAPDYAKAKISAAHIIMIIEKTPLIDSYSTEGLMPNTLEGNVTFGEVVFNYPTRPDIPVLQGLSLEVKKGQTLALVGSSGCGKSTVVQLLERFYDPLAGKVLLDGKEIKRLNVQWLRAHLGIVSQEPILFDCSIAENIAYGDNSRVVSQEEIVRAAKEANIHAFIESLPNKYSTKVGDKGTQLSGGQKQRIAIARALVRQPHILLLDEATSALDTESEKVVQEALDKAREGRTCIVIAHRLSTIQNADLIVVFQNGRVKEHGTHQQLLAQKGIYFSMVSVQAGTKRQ", "assay": "P-gp substrate assessment", "format": "in vitro ADME", "settings": "not told"}, "CYP3A4": {"molecular_target": "CYP3A4 (Homo sapiens, UniProt P08684)", "sequence (P08684 whole entry)": "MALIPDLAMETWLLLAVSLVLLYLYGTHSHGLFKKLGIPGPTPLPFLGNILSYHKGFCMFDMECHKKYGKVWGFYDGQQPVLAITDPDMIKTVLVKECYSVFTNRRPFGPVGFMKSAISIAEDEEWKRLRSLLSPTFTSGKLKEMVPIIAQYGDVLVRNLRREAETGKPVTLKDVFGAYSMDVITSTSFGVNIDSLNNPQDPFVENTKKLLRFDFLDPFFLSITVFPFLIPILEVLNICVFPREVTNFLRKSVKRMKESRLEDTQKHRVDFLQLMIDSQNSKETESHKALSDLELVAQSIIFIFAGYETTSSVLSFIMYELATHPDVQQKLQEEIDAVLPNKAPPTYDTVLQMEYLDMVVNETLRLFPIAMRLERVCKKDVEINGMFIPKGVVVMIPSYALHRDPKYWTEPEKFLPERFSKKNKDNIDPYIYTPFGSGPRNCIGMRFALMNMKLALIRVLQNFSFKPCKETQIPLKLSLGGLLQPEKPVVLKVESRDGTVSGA", "assay": "Metabolism-dependent inhibition or induction of CYP3A4", "format": "in vitro ADME", "settings": "in vitro"}, "[17]": {"settings": "human, in vivo", "remark": "listed apart in the source"}, "clinical [18]": {"assay": "clinical", "settings": "human, in vivo"}, "in vitro [19]": {"assay": "in vitro", "format": "in vitro ADME, humans", "settings": "human, plasma"}, "[20]": {"settings": "dog, in vivo"}, "[21]": {"molecular_target": "breast cancer resistance protein (Homo sapiens, UniProt Q9UNQ0)", "sequence (Q9UNQ0 whole entry)": "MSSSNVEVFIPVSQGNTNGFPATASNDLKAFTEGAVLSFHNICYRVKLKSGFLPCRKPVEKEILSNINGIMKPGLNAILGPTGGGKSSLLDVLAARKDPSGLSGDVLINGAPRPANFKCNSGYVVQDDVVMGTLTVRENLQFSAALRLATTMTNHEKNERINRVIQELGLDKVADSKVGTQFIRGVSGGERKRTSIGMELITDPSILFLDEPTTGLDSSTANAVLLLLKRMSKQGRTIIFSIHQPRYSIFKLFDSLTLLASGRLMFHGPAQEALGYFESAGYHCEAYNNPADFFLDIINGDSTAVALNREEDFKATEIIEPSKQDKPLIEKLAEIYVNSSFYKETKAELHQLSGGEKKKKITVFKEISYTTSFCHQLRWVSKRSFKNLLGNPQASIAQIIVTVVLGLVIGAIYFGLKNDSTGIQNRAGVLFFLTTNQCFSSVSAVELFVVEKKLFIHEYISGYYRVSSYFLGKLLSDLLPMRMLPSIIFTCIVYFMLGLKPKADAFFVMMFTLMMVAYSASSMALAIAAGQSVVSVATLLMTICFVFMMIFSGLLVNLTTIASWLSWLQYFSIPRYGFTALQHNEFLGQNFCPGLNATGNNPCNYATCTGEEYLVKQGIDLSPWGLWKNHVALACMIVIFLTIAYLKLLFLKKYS", "assay": "BCRP substrate assessment", "format": "in vitro ADME", "settings": "in vitro"}, "cytochrome P450s": {"tested_on": "cytochrome P450s", "format": "in vitro ADME"}, "[22]": {"assay": "Chronic lung infection model in mice", "format": "in vivo, C57BL/6 mice", "settings": "C57BL/6, mouse, in vivo, 1.3 mg/kg, read-out: plasma steady-state AUC associated with EDmax (AUCEDmax), target exposure for efficacy in humans", "description": "as §1"}, "M. tuberculosis H37Rv [23]": {"tested_on": "M. tuberculosis H37Rv", "assay": "Chronic lung infection model in mice", "format": "in vivo, C57BL/6 mice", "description": "as §1"}, "[24]": {"tested_on": "M. tuberculosis bacterial strain H37Rv", "design": "method as in PMID 28953378", "settings": "in vitro; cited from earlier work"}, "clinical [25]": {"assay": "clinical", "settings": "human, in vivo, po, 5 mg, Ref"}}, "note": "Like-named read-outs stand apart in the source and are kept apart here.", "data": [{"smiles": "NC[C@H]1OB(O)c2c(OCCO)ccc(Cl)c21", "note": "[GSK3036656, (S)-3-(aminomethyl)-4-chloro-7-(2-hydroxyethoxy)benzo[c][1,2]oxaborol-1(3H)-ol]", "values": [{"measurement": "half-life", "setting": "[1]; both, 5 mg", "value": 40.9, "unit": "h"}, {"measurement": "half-life", "setting": "[1]; both, 15 mg", "value": 28.4, "unit": "h"}, {"measurement": "half-life", "setting": "[1]; 25 mg", "value": 49.9, "unit": "h"}, {"measurement": "fraction unbound", "setting": "in vitro [2]", "value": 0.76}, {"measurement": "dose-proportionality slope, AUC0–t", "setting": "[3]", "value": 1.32}, {"measurement": "dose-proportionality slope, Cmax and AUC0–∞", "setting": "[3]", "value": 0.96}, {"measurement": "Absorption lag time, bootstrap median estimate", "setting": "[4]", "value": 0.24, "unit": "h"}, {"measurement": "Absorption lag time, estimate (%SE)", "setting": "[4]", "value": "0.235 (3) h"}, {"measurement": "Ka, bootstrap median estimate", "setting": "[4]", "value": 0.95, "unit": "h⁻¹"}, {"measurement": "Ka, estimate (%SE)", "setting": "[4]", "value": "0.925 (23) h^−1"}, {"measurement": "Residual variability (Prop), bootstrap median estimate", "setting": "[4]", "value": 12.6, "unit": "%"}, {"measurement": "Residual variability (Prop), estimate (%SE)", "setting": "[4]", "value": "12.9 (16) %"}, {"measurement": "stability in pooled and spiked urine", "setting": "[5]", "value": "degraded to GSK3635633"}, {"measurement": "activity against a panel of common bacterial pathogens", "setting": "[6]", "value": "inactivity"}, {"measurement": "50% inhibitory concentration (IC50)", "setting": "[7]", "value": 0.0588, "unit": "µg/mL"}, {"measurement": "half-life at 14 days", "setting": "[8]; 5 mg", "value": 44, "unit": "h"}, {"measurement": "half-life at 14 days", "setting": "[8]; 15 mg", "value": 37, "unit": "h"}, {"measurement": "oral bioavailability", "setting": "[9]", "value": "very high"}, {"measurement": "No. (%) of subjects with AE: Musculoskeletal chest pain", "setting": "[10]; single dose 5 mg (n = 6)", "value": "0 No. (%)"}, {"measurement": "No. (%) of subjects with AE: Musculoskeletal chest pain", "setting": "[10]; single dose 5 mg, fed (n = 5)", "value": "0 No. (%)"}, {"measurement": "No. (%) of subjects with AE: Musculoskeletal chest pain", "setting": "[10]; single dose 15 mg (n = 6)", "value": "0 No. (%)"}, {"measurement": "No. (%) of subjects with AE: Musculoskeletal chest pain", "setting": "[10]; single dose 25 mg (n = 6)", "value": "1 (17) No. (%)"}, {"measurement": "maximum difference in the lungs compared to untreated mice", "setting": "M. tuberculosis H37Rv [11]; daily oral doses 0.1 to 100 mg/kg for 8 days", "value": 3.6, "unit": "log CFU"}, {"measurement": "EDmax (effective dose giving 90% of the total effect)", "setting": "M. tuberculosis H37Rv [11]; sigmoidal fit", "value": 1.1, "unit": "mg/kg"}, {"measurement": "fraction unbound", "setting": "in vitro [12]", "value": 0.792}, {"measurement": "oral bioavailability", "setting": "[13]", "value": "very high"}, {"measurement": "passive permeability", "setting": "[14]", "value": "moderate"}, {"measurement": "fraction unbound", "setting": "in vitro [15]", "value": 0.688}, {"measurement": "AUC", "setting": "[16]; plasma", "value": 4900, "unit": "ng·h/mL"}, {"measurement": "Cmax", "setting": "[16]; serum", "value": "< 443", "unit": "ng/mL"}, {"measurement": "P-gp substrate", "setting": "P-glycoprotein (P-gp)", "value": "not a P-glycoprotein (P-gp) substrate"}, {"measurement": "metabolism-dependent inhibition or induction of CYP3A4", "setting": "CYP3A4", "value": "no evidence"}, {"measurement": "Total % dose (drug-related material) in pooled urine", "setting": "[17]", "value": 50, "unit": "% dose"}, {"measurement": "AUC", "setting": "clinical [18]; both, 15 mg, steady-state AUC (on average)", "value": 4460, "unit": "ng·h/mL"}, {"measurement": "AUC(0-t)", "setting": "clinical [18]; po, 5 mg", "value": 486, "unit": "ng·h/mL"}, {"measurement": "Cmax", "setting": "clinical [18]; po, 5 mg", "value": 48.4, "unit": "ng/mL"}, {"measurement": "Cmax at 14 days", "setting": "clinical [18]; po, 5 mg", "value": 97, "unit": "ng/mL"}, {"measurement": "Tmax", "setting": "clinical [18]; po, 5 mg", "value": 1.3, "unit": "h"}, {"measurement": "Tmax at 14 days", "setting": "clinical [18]; po, 5 mg", "value": 0.8, "unit": "h"}, {"measurement": "AUC", "setting": "clinical [18]; po, 5 mg, AUC(Ro), geometric LS mean, Ref", "value": 486, "unit": "ng·h/mL"}, {"measurement": "AUC", "setting": "clinical [18]; po, 5 mg, AUC(Ro), geometric LS mean, Test", "value": 1390, "unit": "ng·h/mL"}, {"measurement": "AUC", "setting": "clinical [18]; po, 5 mg, Geometric mean AUC0–τ (%CVb)", "value": 1390, "unit": "ng·h/mL"}, {"measurement": "AUC(0-t)", "setting": "clinical [18]; po, 15 mg", "value": 1890, "unit": "ng·h/mL"}, {"measurement": "Cmax", "setting": "clinical [18]; po, 15 mg", "value": 179, "unit": "ng/mL"}, {"measurement": "Cmax at 14 days", "setting": "clinical [18]; po, 15 mg", "value": 310, "unit": "ng/mL"}, {"measurement": "Tmax at 14 days", "setting": "clinical [18]; po, 15 mg", "value": 0.8, "unit": "h"}, {"measurement": "AUC", "setting": "clinical [18]; po, 15 mg, AUC(Ro), geometric LS mean, Ref", "value": 1890, "unit": "ng·h/mL"}, {"measurement": "AUC", "setting": "clinical [18]; po, 15 mg, AUC(Ro), geometric LS mean, Test", "value": 4460, "unit": "ng·h/mL"}, {"measurement": "AUC", "setting": "clinical [18]; po, 15 mg, Geometric mean AUC0–τ (%CVb)", "value": 4460, "unit": "ng·h/mL"}, {"measurement": "fraction unbound", "setting": "in vitro [19]", "value": 0.838}, {"measurement": "oral bioavailability", "setting": "[20]", "value": "very high"}, {"measurement": "substrate specificity for breast cancer resistance protein", "setting": "[21]", "value": "lack of substrate specificity"}, {"measurement": "direct inhibition of cytochrome P450s", "setting": "cytochrome P450s", "value": "minimal evidence for direct inhibition"}, {"measurement": "AUC", "setting": "[22]", "value": 1740, "unit": "ng·h/mL"}, {"measurement": "maximum reduction (drop of CFU in the lungs)", "setting": "M. tuberculosis H37Rv [23]; 2 months of daily oral treatment", "value": 2.1, "unit": "log10 CFU"}, {"measurement": "EDmax", "setting": "M. tuberculosis H37Rv [23]; sigmoidal fit", "value": 1.3, "unit": "mg/kg"}, {"measurement": "MIC", "setting": "[24]", "value": 0.0235, "unit": "µg/mL"}, {"measurement": "AUC(0-t)", "setting": "clinical [25]; AUC0–t, geometric LS mean", "value": 732, "unit": "ng·h/mL"}, {"measurement": "AUC(0-inf)", "setting": "clinical [25]; AUC0–∞, geometric LS mean", "value": 1430, "unit": "ng·h/mL"}, {"measurement": "Cmax", "setting": "clinical [25]; Cmax, geometric LS mean", "value": 48.4, "unit": "ng/mL"}, {"measurement": "Tmax", "setting": "clinical [25]; Tmax", "value": 1.25, "unit": "h"}]}]}
